In patent US20230157286A1, “METHODS FOR INCREASING SECONDARY METABOLITE PRODUCTION IN CANNABIS” (priority 2021, published 2023):

Tests used:
[1] = system: cannabis clones of the gelato varietal; settings: in vivo
[2] = system: cannabis clones of the gelato varietal; assay: Aroma compound analysis of cannabis flower by GCxGC-FID/TOF-MS; format: in vivo; settings: compared with control and G1
Method: The major volatile aroma compounds of the flowers from the Cannabis plants were extracted using methanol as a solvent. 200 mg of flower was placed into a scintillation vial followed by mechanical grinding with a plastic disposable spatula. 2 mL of methanol was added to the flower and agitated for 15 minutes, followed by transferring 4 μL of the solution using a filtered syringe to a 20 mL headspace vial and crimped using an electric crimper.
GC×GC analysis was performed using the INSIGHT™ reverse fill flush flow modulator (SepSolve Analytical). This was coupled for data generation to an Agilent 7890B GC and BenchTOF Select Time of flight mass spectrometer (Markes International). Time-of-Flight Mass spectrometry (TOF-MS) was used to identify compounds. Quantification of compounds was done using a flame ionization detector (HD). Sample introduction was done using a Centri Sample Concentration Platform (Markes International). […]
Data was collected, integrated, and analyzed using the ChromSpace software platform (Sepsolve Analytical). Compounds were quantified from GC×GC—FID data with calibration curves using a 40-compound terpene standard (LGC Standards). […]
Three different samples of the plants shown in FIG. 4 were measured to obtain an average.
Three different samples of the plants shown were measured to for each group.

COc1ccc2[nH]cc(CCNC(C)=O)c2c1 [melatonin]
THC and total cannabinoid concentration / cannabinoid production, in words [1]: increased cannabinoid production relative to the control group

O=S(=O)([O-])[O-].[K+].[K+] [K2SO4, potassium sulfate]
THC and total cannabinoid concentration / cannabinoid production, in words [1]: negatively affects | volatile aroma compound production / aroma content, in words [2]: negatively affects
